# Measurements published in US6676932B2, “Ultraviolet absorbent, photostabilizer, ultraviolet ray-absorbing composition, photostabilized composition and external preparation for skin” (Shiseido Co., Ltd., priority 2001, dated 2004).
# Assays:
# [1] = Stabilization effect on perfume under daylight exposure (Test Examples 92 to 181); assay type: physicochemical; parameters: key: ◯: no change; Δ: almost no change; x: change; settings: daylight exposure (80 MJ)
# Method: Each test sample was prepared for observation of the change of the odor of the test sample (determined by perfume coordinator) before and after daylight exposure (80 MJ).
# [2] = Drug stabilization effect blended with sequestering agent (Test Examples 372 to 391); assay type: physicochemical; parameters: key to Appearance (visual determination): ◯: no change; Δ: almost no change; x: change; settings: drug L-ascorbic acid 2-glucoside 2.0, photostabilizer blend amount 0.03, daylight exposure (80 MJ)
# Method: Then, the photostabilization effect of the pyridazine derivative in combination with sequestering agents on each drug and the change of the appearance of each composition were examined, by using the following formulation for assessment.
# (§1) For observation of the change of the appearance of each test sample (determination based on visual observation) and the measurement of the remaining ratio by liquid chromatography before and after daylight exposure (80 MJ), the test sample was prepared.
# [3] = Dye stabilization effect under daylight exposure (Test Examples 6-91); assay type: physicochemical; parameters: key to Δ E: color difference ΔE in Lab vs. color before daylight exposure; key to Appearance (visual determination): ◯: no change; Δ: almost no change; x: change; settings: photostabilizer 0.05 wt %, daylight exposure (80 MJ)
# Method: For observation of the change of the appearance of each test sample (determination based on visual observation) and the measurement of color difference (ΔE) before and after daylight exposure (80 MJ), the test sample was prepared.
# (§2) With a spectrophotometer, the color was measured on the Lab coordinate system, to calculate the color difference on the basis of the color before daylight exposure. More specifically, the color difference (ΔE) was calculated on the basis of the measured values (L1, a1, b1) before daylight exposure.
# [4] = Dye stabilization effect in blend with sequestering agents (Test Examples 212 to 275); assay type: physicochemical; settings: daylight exposure (80 MJ)
# Method: Each test sample was prepared for observation of the change of the appearance of each test sample (determined visually) and measurement of the color difference (ΔE) before and after daylight exposure (80 MJ).
# as §2
# [5] = Drug stabilization effect under daylight exposure (Test Examples 182 to 211); assay type: physicochemical; parameters: key to Appearance (visual determination): ◯: no change; Δ: almost no change; x: change; settings: photostabilizer 0.05 wt %, daylight exposure (80 MJ); for Remaining ratio (%): liquid chromatography
# Method: as §1
# [6] = test system: skin; assay: Test of skin irritation: continuous application test (Test Example 3 i); assay type: in vivo, human; settings: 10 wt % ultraviolet absorbent, twice daily for 4 weeks
# Method: (§3) The same samples as in the Test Example 2 were used (at a 10 wt % amount of an ultraviolet absorbent).
# Continuous application test was carried out for 20 healthy subjects per one group. An appropriate amount of each of the samples was coated twice daily for 4 weeks. The effects were assessed according to the following assessment standards.
# Mean score was calculated for the determination of the effect on the basis of the following standards.
# (§4) ◯: mean score of more than 0 to less than 1.
# (§5) Δ: mean score of 1 or more to less than 2.
# (§6) x: mean score of 2 or more.
# [7] = Photostability test of aqueous solutions under daylight (Test Example 4); assay type: physicochemical; settings: aqueous solution, daylight for 2 weeks (80 MJ)
# Method: Aqueous solutions of the pyridazine derivative of the invention were exposed to daylight for 2 weeks (at a daylight exposure of 80 MJ). Subsequently, the remaining ratio and the change of the appearance were examined to measure the ultraviolet spectra with a spectrophotometer (solvent: water; concentration of 10 ppm and optical path length of 1 cm). The area under ultraviolet spectra curve from 290 nm to 400 nm were determined by integration to compare the area with the area before daylight exposure.
# The remaining ratio and the change of the area under the ultraviolet spectrum were determined on the basis of the following standards.
# ⊚: 95% or more of those before daylight exposure.
# ◯: 90% or more to less than 95% of those before daylight exposure.
# Δ: 70% or more to less than 90% of those before daylight exposure.
# x: less than 70% of those before daylight exposure.
# [8] = Stability test in combination with inorganic powder-based ultraviolet shielding agent, sunscreen cream (Test Example 5); assay type: physicochemical; settings: sunscreen cream with inorganic powders; ultraviolet absorbent 10.0 wt %; 50° C. for 2 months; visual observation
# Method: A sunscreen cream of the following formulation was prepared and stored at 50° C. for 2 months. Under visual observation of the color change, the stability of the inventive pyridazine derivative in combination with inorganic powder-based ultraviolet screening agents commonly in blend as external preparations for skin for the purpose of ultraviolet prevention was examined.
# After the ingredient 2 was added to the ingredient 1 to swell the ingredient 2, the ingredients 3 to 11 were mixed with the resulting mixture under heating, for sufficient dispersion and dissolution. While keeping the dispersion at 70° C., a solution of the mixture of the ingredients 12 to 15 was gradually added to the dispersion under thorough emulsification with a homomixer. The resulting mixture was cooled to 30° C. under sufficient stirring to prepare sunscreen creams.
# [9] = test system: sunburn; assay: Ultraviolet preventive effect, application test on beach in summer (Test Example 2); assay type: in vivo, human
# Method: An application test was carried out on beach in summer. Equal volumes of samples were individually coated on back halves of subjects. After exposure to direct daylight, the degree of sunburn was assessed according to the following assessment standards. Each group consists of 10 subjects.
# Prominently effective: none or almost no sunburn symptom was observed.
# Effective: light sunburn symptom was observed.
# Ineffective: strong sunburn symptom was observed.
# ⊚: prominently effective or effective for 80% or more of the subjects.
# ◯: prominently effective or effective for 50% or more to less than 80% of the subjects.
# Δ: prominently effective or effective for 30% or more to less than 50% of the subjects.
# x: prominently effective or effective for less than 30% of the subjects.
# The aqueous phase and the alcohol phase were separately prepared and then mixed together.
# Propylene glycol was added to and dissolved in ion exchange water. The resulting solution was retained at 70° C. under heating (aqueous phase). Other ingredients were mixed […]. The resulting mixture was melted under heating and retained at 70° C. (oil phase). The oil phase was added to the aqueous phase, for preliminary emulsification with a homomixer to homogeneity. Under thorough mixing, subsequently, the mixture was cooled to 30° C.
# [10] = test system: skin; assay: Test of skin irritation: 24-hour occlusion patch test (Test Example 3 ii); assay type: in vivo, human; settings: 10 wt % ultraviolet absorbent
# Method: as §3
# 20 Healthy male and female volunteers per one group were carried out in a 24-hour occlusion patch test, using a fin chamber on forearm curves. Assessment was done on the basis of the following assessment standards.
# Mean score was determined for the assessment on the basis of the following standards.
# as §4, §5, §6
# [11] = dye Blue 1 (Brilliant Blue FCF) 0.0001 wt %
# [12] = dye Green 3 (Fast Green FCF) 0.001 wt %
# [13] = dye Red 227 (Acid Fuchsine D) 0.0001 wt %
# [14] = dye Yellow 5 (Sunset Yellow FCF) 0.001 wt %
# [15] = dyes Red 401 (Violanin R) 0.0001 + Blue 1 (Brilliant Blue FCF) 0.00001 wt %
# [16] = dyes Yellow 203 (Quinoline Yellow WS) 0.0001 + Yellow 5 (Sunset Yellow FCF) 0.0001 wt %
# [17] = drug dibutylhydroxytoluene 0.01 wt %
# [18] = dyes Red 227 (Acid Fuchsine D) 0.0001 + Yellow 5 (Sunset Yellow FCF) 0.0001 wt %
smiles,measurement,setting,value
"Oc1ccc(N2CCOCC2)nn1 [3-Hydroxy-6-morpholinopyridazine, 6-Morpholino-3-hydroxypyridazine]",odor determination,"[1]; natural perfume Nelori oil, photostabilizer 0.1 wt %",◯
same,odor determination,"[1]; natural perfume Ylang ylang oil, photostabilizer 0.2 wt %",◯
same,odor determination,"[1]; synthetic perfume Limonene oil, photostabilizer 0.05 wt %",◯
same,odor determination,"[1]; synthetic perfume Linalool, photostabilizer 0.05 wt %",◯
same,Appearance (visual determination),[2]; no sequestering agent,◯
same,Appearance (visual determination),[2]; with sodium metaphosphate 0.03,◯
same,Appearance (visual determination),[3]; [11],◯
same,Δ E,[3]; [11],1.32
same,Appearance (visual determination),[3]; [12],◯
same,Δ E,[3]; [12],0.43
same,Appearance (visual determination),[3]; [13],◯
same,Δ E,[3]; [13],0.54
same,Appearance (visual determination),[3]; [14],◯
same,Δ E,[3]; [14],0.53
same,Appearance (visual determination),[3]; [15],◯
same,Δ E,[3]; [15],0.52
same,Appearance (visual determination),[3]; [16],◯
same,Δ E,[3]; [16],0.44
same,Δ E,"[4]; dye Green 3 (Fast Green FCF) 0.001, photostabilizer 0.02, no sequestering agent",0.75
same,Δ E,"[4]; dye Green 3 (Fast Green FCF) 0.001, photostabilizer 0.02, with ethylenediaminetetraacetate trisodium 0.1",0.32
same,Δ E,"[4]; dye Green 3 (Fast Green FCF) 0.001, photostabilizer 0.02, with sodium metaphosphate 0.1",0.36
same,Δ E,"[4]; dye Green 3 (Fast Green FCF) 0.001, photostabilizer 0.02, with sodium polyphosphate 0.1",0.52
same,Δ E,"[4]; dyes Red 106 (Acid Red) 0.00001 + Yellow 5 (Sunset Yellow FCF) 0.0001, no sequestering agent, photostabilizer blend amount 0.01",1.38
same,Δ E,"[4]; dyes Red 106 (Acid Red) 0.00001 + Yellow 5 (Sunset Yellow FCF) 0.0001, with ethylenediaminetetraacetate trisodium 0.02, photostabilizer blend amount 0.01",0.92
same,Appearance (visual determination),[5]; [17],◯
same,Remaining ratio (%),[5]; [17],98.0%
"Oc1nnccc1N1CCCCC1 [3-Hydroxy-4-piperidinopyridazine, 3-hydroxy-4-piperidinopyridazine]",odor determination,"[1]; base perfume Rose, photostabilizer 0.05 wt %",◯
same,odor determination,"[1]; base perfume Woody, photostabilizer 0.1 wt %",◯
same,odor determination,"[1]; natural perfume Rose oil, photostabilizer 0.05 wt %",◯
same,"Determination (skin reaction, continuous application test)",[6]; cream,⊚ (mean score of 0)
same,"Determination (skin reaction, continuous application test)",[6]; lotion,⊚ (mean score of 0)
same,Remaining ratio,[7],⊚ (95% or more of those before daylight exposure)
same,Change of area under ultraviolet spectrum,[7]; 290 nm to 400 nm,⊚ (95% or more of those before daylight exposure)
same,Color change,[8],no
same,Appearance (visual determination),[3]; [11],◯
same,Δ E,[3]; [11],1.24
same,Appearance (visual determination),[3]; [12],◯
same,Δ E,[3]; [12],0.46
same,Appearance (visual determination),[3]; [13],◯
same,Δ E,[3]; [13],0.54
same,Appearance (visual determination),[3]; [14],◯
same,Δ E,[3]; [14],0.58
same,Appearance (visual determination),[3]; [18],◯
same,Δ E,[3]; [18],0.65
same,Ultraviolet prevention effect,"[9]; cream, blend amount 0.0005 wt %",Δ (prominently effective or effective for 30% or more to less than 50% of the subjects)
same,Ultraviolet prevention effect,"[9]; cream, blend amount 0.001 wt %",◯ (prominently effective or effective for 50% or more to less than 80% of the subjects)
same,Ultraviolet prevention effect,"[9]; cream, blend amount 0.01 wt %",⊚ (prominently effective or effective for 80% or more of the subjects)
same,Ultraviolet prevention effect,"[9]; cream, blend amount 1 wt %",⊚ (prominently effective or effective for 80% or more of the subjects)
same,Ultraviolet prevention effect,"[9]; cream, blend amount 5 wt %",⊚ (prominently effective or effective for 80% or more of the subjects)
same,Ultraviolet prevention effect,"[9]; cream, blend amount 10 wt %",⊚ (prominently effective or effective for 80% or more of the subjects)
same,Ultraviolet prevention effect,"[9]; cream, blend amount 20 wt %",⊚ (prominently effective or effective for 80% or more of the subjects)
same,Ultraviolet prevention effect,"[9]; lotion, blend amount 0.0005 wt %",Δ (prominently effective or effective for 30% or more to less than 50% of the subjects)
same,Ultraviolet prevention effect,"[9]; lotion, blend amount 0.001 wt %",◯ (prominently effective or effective for 50% or more to less than 80% of the subjects)
same,Ultraviolet prevention effect,"[9]; lotion, blend amount 0.01 wt %",⊚ (prominently effective or effective for 80% or more of the subjects)
same,Ultraviolet prevention effect,"[9]; lotion, blend amount 1 wt %",⊚ (prominently effective or effective for 80% or more of the subjects)
same,Ultraviolet prevention effect,"[9]; lotion, blend amount 5 wt %",⊚ (prominently effective or effective for 80% or more of the subjects)
same,Ultraviolet prevention effect,"[9]; lotion, blend amount 10 wt %",⊚ (prominently effective or effective for 80% or more of the subjects)
same,Ultraviolet prevention effect,"[9]; lotion, blend amount 20 wt %",⊚ (prominently effective or effective for 80% or more of the subjects)
same,Appearance (visual determination),[5]; drug salicylic acid 0.1 wt %,◯
same,Remaining ratio (%),[5]; drug salicylic acid 0.1 wt %,98.4%
same,"Determination (skin reaction, patch test)",[10]; cream,⊚ (mean score of 0)
same,"Determination (skin reaction, patch test)",[10]; lotion,⊚ (mean score of 0)
